Test results: article PMC12736255, “Reinvestigating Pyrrol-2-One-Based Compounds: From Antimicrobial Agents to Promising Antitumor Candidates” (Pharmaceuticals, 2025)

What was measured:
KM12 = assay: NCI-60 5-dose screen; assay type: cell-based, human
LOX IMVI = assay: NCI-60 5-dose screen; assay type: cell-based, human
CAKI-1 = assay: NCI-60 5-dose screen; assay type: cell-based, human
MALME-3M = assay: NCI-60 5-dose screen; assay type: cell-based, human
BT-549 = assay: NCI-60 5-dose screen; assay type: cell-based, human
M14 = assay: NCI-60 5-dose screen; assay type: cell-based, human
TK-10 = assay: NCI-60 5-dose screen; assay type: cell-based, human
HOP-62 = assay: NCI-60 5-dose screen; assay type: cell-based, human
SR = assay: NCI-60 5-dose screen; assay type: cell-based, human
U-118MG = assay: CellTiter-Glo 2.0 cytotoxicity, glioblastoma; assay type: cell-based, human; conditions: 50 µM, 24 h
Protocol: (§1) Cytotoxicity of compounds was assessed using the CellTiter-Glo® 2.0 Assay (Promega, Madison, WI, USA) on human gingival fibroblasts (HGF), osteosarcoma (HOS and MG-63) and glioblastoma (LN-229 and U-118MG) cells, according to the manufacturer’s instructions. HGF, HOS, MG-63 and U-118MG cells were purchased from Cytion GmbH, Eppelheim, Germany, and LN-229 (CRL-2611) from the American Type Culture Collection (ATCC), Manassas, VA, USA. Cells were seeded (50,000 cells/mL—HGF, 100,000 cells/mL—tumor cells) into 96-well opaque white tissue culture-treated plates and allowed to adhere overnight in αMEM medium with 10% fetal bovine serum and 1% antibiotic-antimycotic (all from PAN—Biotech GmbH, Aidenbach, Germany). Cells were incubated with compounds (10 or 50 µM) for 24 h, then CellTiter-Glo® reagent was added and luminescence was recorded using a FLUOstar® Omega microplate reader (BMG LABTECH, Ortenberg, Germany). The experiments were carried out in triplicate, and the viability of treated cells was expressed as a percentage of the viability of control cells (untreated). Data were represented as means ± standard deviations. Stock solutions of compounds were prepared in DMSO, then diluted in complete cell culture media. […] Data were analyzed with independent two-tailed (Student’s) t-test, considering p < 0.05 statistically significant.

LN-229 = assay: CellTiter-Glo 2.0 cytotoxicity, glioblastoma; assay type: cell-based, human; conditions: LN-229, 24 h
Protocol: as §1

[1] = test system: human gingival fibroblasts (HGF); assay: CellTiter-Glo 2.0 cytotoxicity, normal fibroblasts; assay type: cell-based; conditions: 50 µM, 24 h
Protocol: as §1

ACHN = assay: NCI-60 5-dose screen; assay type: cell-based, human
OVCAR-3 = assay: NCI-60 5-dose screen; assay type: cell-based, human
HL-60(TB) = assay: NCI-60 5-dose screen; assay type: cell-based, human
HS 578T = assay: NCI-60 5-dose screen; assay type: cell-based, human
A549/ATCC = assay: NCI-60 5-dose screen; assay type: cell-based, human
SK-MEL-2 = assay: NCI-60 5-dose screen; assay type: cell-based, human
CCRF-CEM = assay: NCI-60 5-dose screen; assay type: cell-based; conditions: Homo sapiens
SK-OV-3 = assay: NCI-60 5-dose screen; assay type: cell-based, human
COLO 205 = assay: NCI-60 5-dose screen; assay type: cell-based, human
HCT-116 = assay: NCI-60 5-dose screen; assay type: cell-based, human
MDA-MB-468 = assay: NCI-60 5-dose screen; assay type: cell-based, human
SNB-75 = assay: NCI-60 5-dose screen; assay type: cell-based, human
[2] = test system: osteosarcoma (HOS and MG-63) cells; assay: CellTiter-Glo 2.0 cytotoxicity, osteosarcoma; assay type: cell-based, human; conditions: osteosarcoma cell lines, 10 and 50 µM, 24 h
Protocol: as §1

T-47D = assay: NCI-60 5-dose screen; assay type: cell-based, human
[3] = CellTiter-Glo 2.0 cytotoxicity, normal fibroblasts; assay type: cell-based, human; conditions: human, human gingival fibroblasts (HGF), read-out: cell viability
Protocol: as §1

[4] = Homo sapiens, read-out: LC50 (the source's name)

With O=C1C(Nc2ccc(I)cc2)=CC(c2ccc(O)c(O)c2)N1c1ccc(I)cc1 (stereo not drawn) [3h] the TGI (KM12) was >100 µM, the GI50 (KM12; Homo sapiens) was 5.22 µM and the CC50 (KM12; [4]) was > 100 µM. For the same compound, the TGI (LOX IMVI) was >100 µM, the GI50 (LOX IMVI; Homo sapiens) was > 100 µM and the CC50 (LOX IMVI; [4]) was > 100 µM. The TGI (CAKI-1) was >100 µM, the GI50 (CAKI-1; Homo sapiens) was > 100 µM and the CC50 (CAKI-1; [4]) was > 100 µM. For the same compound, the GI50 (MALME-3M; Homo sapiens, Malme-3M) was 2.68 µM, the CC50 (MALME-3M; Homo sapiens, Malme-3M, read-out: LC50 (the source's name)) was > 100 µM and the TGI (MALME-3M; MALME-3M) was >100 µM. The TGI (BT-549) was >100 µM, the GI50 (BT-549; Homo sapiens) was > 100 µM and the CC50 (BT-549; [4]) was > 100 µM. The TGI (M14) was >100 µM, the GI50 (M14; Homo sapiens) was 5.34 µM and the CC50 (M14; [4]) was > 100 µM. The TGI (TK-10) was >100 µM, the GI50 (TK-10; Homo sapiens) was > 100 µM and the CC50 (TK-10; [4]) was > 100 µM. The TGI (HOP-62) was >100 µM, the GI50 (HOP-62; Homo sapiens) was > 100 µM and the CC50 (HOP-62; [4]) was > 100 µM. The TGI (SR) was 2.99 µM, the GI50 (SR; Homo sapiens) was 1.55 µM and the CC50 (SR; [4]) was 5.75 µM. For the same compound, the “cytotoxicity (activity in words)” value (U-118MG) was “moderate activity”, the “cytotoxicity (activity in words)” value (LN-229) was “ineffective” and the “cytotoxicity (activity in words)” value [1] was “acute cytotoxicity”. The TGI (ACHN) was >100 µM, the GI50 (ACHN; Homo sapiens) was > 100 µM and the CC50 (ACHN; [4]) was > 100 µM. For the same compound, the TGI (OVCAR-3) was >100 µM, the GI50 (OVCAR-3; Homo sapiens) was 9.16 µM and the CC50 (OVCAR-3; [4]) was > 100 µM. The TGI (HL-60(TB)) was 4.28 µM, the GI50 (HL-60(TB); Homo sapiens) was 2.19 µM and the CC50 (HL-60(TB); [4]) was 8.38 µM. The TGI (HS 578T) was >100 µM, the GI50 (HS 578T; Homo sapiens) was 6.65 µM and the CC50 (HS 578T; [4]) was > 100 µM. The TGI (A549/ATCC) was >100 µM, the GI50 (A549/ATCC; Homo sapiens) was > 100 µM and the CC50 (A549/ATCC; [4]) was > 100 µM. The TGI (SK-MEL-2) was >100 µM, the GI50 (SK-MEL-2; Homo sapiens) was 6.64 µM and the CC50 (SK-MEL-2; [4]) was > 100 µM. For the same compound, the GI50 (CCRF-CEM) was 3.09 µM, the CC50 (CCRF-CEM; read-out: LC50 (the source's name)) was 3.61 µM and the TGI (SK-OV-3) was >100 µM. For the same compound, the GI50 (SK-OV-3; Homo sapiens) was 7.6 µM, the CC50 (SK-OV-3; [4]) was > 100 µM and the TGI (COLO 205) was >100 µM. For the same compound, the GI50 (COLO 205; Homo sapiens) was 6.65 µM, the CC50 (COLO 205; [4]) was > 100 µM and the TGI (HCT-116) was >100 µM. For the same compound, the GI50 (HCT-116; Homo sapiens) was 7.43 µM, the CC50 (HCT-116; [4]) was > 100 µM and the TGI (MDA-MB-468) was >100 µM. The GI50 (MDA-MB-468; Homo sapiens) was 3.1 µM, the CC50 (MDA-MB-468; [4]) was > 100 µM and the TGI (SNB-75) was >100 µM. For the same compound, the GI50 (SNB-75; Homo sapiens) was > 100 µM, the CC50 (SNB-75; [4]) was > 100 µM and the “cytotoxicity (activity in words)” value [2] was “notable activity”. For the same compound, the TGI (T-47D) was >100 µM, the GI50 (T-47D; Homo sapiens, T47D) was 2.41 µM and the CC50 (T-47D; Homo sapiens, T47D, read-out: LC50 (the source's name)) was > 100 µM.
For COc1cc(OC)c(C2C=C(Nc3ccc(I)cc3)C(=O)N2c2ccc(I)cc2)cc1OC (stereo not drawn) [3k], the “cytotoxicity (activity in words)” value (U-118MG) was “moderate activity”, the “cytotoxicity (activity in words)” value (LN-229) was “ineffective” and the viability at 24 h, 50 µM [3] was 64%.
